Data as given in patent US20230054857A1, “FLAVONOID COMPOSITIONS AND RELATED USES” (Firmenich SA, priority 2020, published 2023).

Tests used:
Format in all cases: physicochemical
[1] = Stability of supersaturated naringenin solution (60 ppm): crystallization onset and final concentration
Method: To assess stability performance, the solution concentration of rhoifolin was determined over time. At specific time points 4 g of the solution were sampled, filtered and mixed with 1 g of acetonitrile. The solution was injected into a Vanquish UHPLC from Thermo Scientific coupled with a UV detector. The column was an Accucore Vanquish C18+(1.5 μm, 2.1×100 mm), eluted with a mixture of acetonitrile and water at 0.3 mL/min. The elution protocol was as follows: 5% acetonitrile (3 minutes), followed by a gradient from 5% to 80% of acetonitrile in 10 minutes. The corresponding peak of Rhoifolin was integrated, and the concentration was calculated based on a previously established calibration curve. The onset of crystallization is expressed as the point where the solution concentration passes below 95% of its initial value of 100%. The value was obtained by algorithmic curve fitting. […] In this example, and throughout “d” refers to days. Aqueous solutions of Berry extract were prepared at a concentration of 25 ppm, 50 ppm, 75 ppm, and 100 ppm by dissolving dry Berry extract in 99 g of buffer solution (citrate buffer, 100 mM, pH 2.8, 0.2% sodium benzoate). Then 1 gram of stock solution of naringenin in PG at 6000 ppm was added and mixed quickly with the aqueous phase. The samples were stored at 8° C., and aliquots were removed over the course of 40 days. A control solution of naringenin without Berry extract was also prepared. […] Aqueous solutions of Berry extract were prepared at a concentration of 100 ppm by dissolving dry Berry extract in 99 g of buffer solution (citrate buffer, 100 mM, pH 2.8, 0.2% sodium benzoate) with various additional additives. Then 1 gram of stock solution of naringenin in PG at 6000 ppm was added and mixed quickly with the aqueous phase. The samples were stored at 8° C., and aliquots were removed over the course of five months. A control solution of naringenin without Berry extract or additional additive was also prepared. A solution with Berry extract, but no additional additive was also prepared. The concentration of the additional additives is 100 ppm in each case. […] Saponin is Quillaja P (Firmenich SA). Aqueous solutions of black rice extracts were prepared at a concentration of 100 ppm by dissolving dry black rice extract in 99 g of buffer solution (citrate buffer, 100 mM, pH 2.8, 0.2% sodium benzoate) with various additional additives. Then 1 gram of stock solution of naringenin in PG at 6000 ppm was added and mixed quickly with the aqueous phase. The samples were stored at 8° C., and aliquots were removed over the course of five months. A control solution of naringenin without black rice extract or additional additive was also prepared. A solution with black rice extract, but no additional additive was also prepared. The concentration of the additional additives is 100 ppm in each case. […] Saponin is Quillaja P (Firmenich SA). Aqueous solutions were prepared in 99 gram of buffer solution (citrate buffer, 100 mM, pH 2.8, 0.2% sodium benzoate) with various additives. Then 1 gram of stock solution of naringenin in PG at 6000 ppm was added and mixed quickly with the aqueous phase. The samples were stored at 8° C., and aliquots were removed over the course of 5 months. A control solution of naringenin without additive was prepared. The concentration of the additives is 100 ppm in each case. […] Saponin is Quillaja P (Firmenich SA). Aqueous solutions of Berry extract were prepared at a concentration of 25 ppm by dissolving dry Berry extract in 99 g of buffer solution (citrate buffer, 100 mM, pH 2.8, 0.2% sodium benzoate) with various amounts of added saponin. Then 1 gram of stock solution of naringenin in PG at 6000 ppm was added and mixed quickly with the aqueous phase. The samples were stored at 8° C., and aliquots were removed over the course of five months. A control solution of naringenin without Berry extract or additional additive was also prepared. A solution with Berry extract, but no additional additive was also prepared. […]

[2] = Stability of supersaturated phloretin solution (60 ppm): crystallization onset and final concentration
Method: To assess stability performance, the solution concentration of rhoifolin was determined over time. At specific time points 4 g of the solution were sampled, filtered and mixed with 1 g of acetonitrile. The solution was injected into a Vanquish UHPLC from Thermo Scientific coupled with a UV detector. The column was an Accucore Vanquish C18+(1.5 μm, 2.1×100 mm), eluted with a mixture of acetonitrile and water at 0.3 mL/min. The elution protocol was as follows: 5% acetonitrile (3 minutes), followed by a gradient from 5% to 80% of acetonitrile in 10 minutes. The corresponding peak of Rhoifolin was integrated, and the concentration was calculated based on a previously established calibration curve. The onset of crystallization is expressed as the point where the solution concentration passes below 95% of its initial value of 100%. The value was obtained by algorithmic curve fitting. […] In this example, and throughout “d” refers to days. Aqueous solutions of Berry extract were prepared at a concentration of 25 ppm, 50 ppm, 75 ppm, and 100 ppm by dissolving dry Berry extract in 99 g of buffer solution (citrate buffer, 100 mM, pH 2.8, 0.2% sodium benzoate). Then 1 gram of stock solution of phloretin in PG at 6000 ppm was added and mixed quickly with the aqueous phase. The samples were stored at 8° C., and aliquots were removed over the course of three months. A control solution of phloretin without Berry extract was also prepared. […] Aqueous solutions were prepared in 99 gram of buffer solution (citrate buffer, 100 mM, pH 2.8, 0.2% sodium benzoate) with saponin. Then 1 gram of stock solution of phloretin in PG at 6000 ppm was added and mixed quickly with the aqueous phase. The samples stored at 8° C., and aliquots were removed over the course of 5 months. A control solution of phloretin without saponin was prepared. The concentration of saponin was 100 ppm. […] Saponin is Quillaja P (Firmenich SA).

[3] = Stability of supersaturated rhoifolin solution (20 ppm): solution concentration over time by UHPLC, onset of crystallization; details: for 50% / Fin. Conc. (ppm) / Onset / 50% (d), days for 50% crystallization of rhoifolin: room temperature, 40 days
Method: Aqueous solutions of various anthocyanin extracts were prepared at concentrations of 100 ppm, 200 ppm, and 300 ppm by dissolving dry anthocyanin extract in 99 g of buffer solution (citrate buffer, 100 mM, pH 2.8, 0.2% sodium benzoate). Then 1 gram of stock solution of rhoifolin in propylene glycol (PG) at 2000 ppm was added and mixed quickly with the aqueous phase. The samples were left at room temperature, and aliquots were removed over the course of three months. A control solution of rhoifolin without anthocyanin was also prepared.
To assess stability performance, the solution concentration of rhoifolin was determined over time. At specific time points 4 g of the solution were sampled, filtered and mixed with 1 g of acetonitrile. The solution was injected into a Vanquish UHPLC from Thermo Scientific coupled with a UV detector. The column was an Accucore Vanquish C18+(1.5 μm, 2.1×100 mm), eluted with a mixture of acetonitrile and water at 0.3 mL/min. The elution protocol was as follows: 5% acetonitrile (3 minutes), followed by a gradient from 5% to 80% of acetonitrile in 10 minutes. The corresponding peak of Rhoifolin was integrated, and the concentration was calculated based on a previously established calibration curve. The onset of crystallization is expressed as the point where the solution concentration passes below 95% of its initial value of 100%. The value was obtained by algorithmic curve fitting. […] In this example, and throughout “d” refers to days.
Aqueous solutions of black rice extract were prepared at a concentration of 100 ppm by dissolving dry black rice extract in 99 g of buffer solution (citrate buffer, 100 mM, pH 2.8, 0.2% sodium benzoate) with various additional additives. Then 1 gram of stock solution of rhoifolin in PG at 2000 ppm was added and mixed quickly with the aqueous phase. The samples were left at room temperature, and aliquots were removed over the course of 40 days. A control solution of rhoifolin without black rice or additional additives was also prepared. A solution with black rice, but no additional additive was also prepared. The concentration of the additional additives is 100 ppm in each case. […] Saponin is Quillaja P (Firmenich SA).
Aqueous solutions were prepared in 99 gram of buffer solution (citrate buffer, 100 mM, pH 2.8, 0.2% sodium benzoate) with various additives. Then 1 gram of stock solution of rhoifolin in PG at 2000 ppm was added and mixed quickly with the aqueous phase. The samples were left at room temperature, and aliquots were removed over the course of 40 days. A control solution of rhoifolin without additive was prepared. The concentration of the additives is 100 ppm in each case. […] Saponin is Quillaja P (Firmenich SA).

[4] = Example 4 control: naringenin 60 ppm without Berry extract, pH 2.8, 8° C., 40 days
[5] = Example 5 control: naringenin 60 ppm without Berry extract or additive, 8° C., five months
[6] = Example 6 control: naringenin 60 ppm without black rice extract or additive, 8° C., five months
[7] = Example 7 control: naringenin 60 ppm without additive, 8° C., 5 months
[8] = Example 8 control: naringenin 60 ppm without Berry extract or additive, 8° C., five months
[9] = Example 9 control: naringenin 60 ppm without saponin, 8° C., five months
[10] = Example 10 control: phloretin 60 ppm without Berry extract, pH 2.8, 8° C., three months
[11] = Example 11 control: phloretin 60 ppm without saponin, 8° C., 5 months
[12] = rhoifolin 20 ppm + 100 ppm additive alone
[13] = rhoifolin 20 ppm + 100 ppm black rice extract + 100 ppm additive
[14] = naringenin 60 ppm + 100 ppm Berry extract + 100 ppm additive, 8° C., five months
[15] = naringenin 60 ppm + 100 ppm additive alone, 8° C., 5 months
[16] = naringenin 60 ppm + 100 ppm black rice extract + 100 ppm additive, 8° C., five months
[17] = Example 2 control: rhoifolin 20 ppm without black rice extract or additive
[18] = Example 3 control: rhoifolin 20 ppm without additive
[19] = control: rhoifolin 20 ppm without extract, pH 2.8, room temperature

## O=C1C[C@@H](c2ccc(O)cc2)Oc2cc(O)cc(O)c21 [Naringenin, naringenin]
[1]; [4]
  Fin. Conc. (ppm): 24.6 ppm
  Onset: 0.3 days
[1]; [5]
  Fin. Conc. (ppm): 24.6 ppm
  Onset: 0.3 days
[1]; [6]
  Fin. Conc. (ppm): 24.6 ppm
  Onset: 0.3 days
[1]; [7]
  Fin. Conc. (ppm): 24.6 ppm
  Onset: 0.3 days
[1]; [8]
  Fin. Conc. (ppm): 24.6 ppm
  Onset: 0.3 days
[1]; [9]
  Fin. Conc. (ppm): 24.6 ppm
  Onset: 0.3 days

## O=C(CCc1ccc(O)cc1)c1c(O)cc(O)cc1O [Phloretin, phloretin]
[2]; [10]
  Fin. Conc. (ppm): 33.8 ppm
  Onset: 13.6 days
[2]; [11]
  Fin. Conc. (ppm): 33.8 ppm
  Onset: 13.6 days

## C=C1C[C@@]23CC[C@H]4[C@@](C)(CCC[C@@]4(C)C(=O)O[C@@H]4O[C@H](CO)[C@@H](O)[C@H](O)[C@H]4O)[C@@H]2CC[C@]1(O[C@@H]1O[C@H](CO)[C@@H](O)[C@H](O[C@@H]2O[C@H](CO)[C@@H](O)[C@H](O)[C@H]2O)[C@H]1O[C@@H]1O[C@H](CO)[C@@H](O)[C@H](O)[C@H]1O)C3 [Rebaudioside A, reference compound]
[3]; [12]
  50%: 13.6 days
  Fin. Conc. (ppm): 4.04 ppm
  Onset: 7.5 days
[3]; [13]
  50% (d), days for 50% crystallization of rhoifolin: 18.8 days
  Fin. Conc. (ppm): 5.96 ppm
  Onset: 10.8 days
[1]; [14]
  Fin. Conc. (ppm): 34.1 ppm
  Onset: 15.8 days
[1]; [15]
  Fin. Conc. (ppm): 31.0 ppm
  Onset: 7.5 days
[1]; [16]
  Fin. Conc. (ppm): 35.4 ppm
  Onset: 18.3 days

## C[C@@H]1O[C@@H](O[C@H]2[C@H](Oc3cc(O)c4c(=O)cc(-c5ccc(O)cc5)oc4c3)O[C@H](CO)[C@@H](O)[C@@H]2O)[C@H](O)[C@H](O)[C@H]1O [Rhoifolin, rhoifolin]
[3]; [17]
  50% (d), days for 50% crystallization of rhoifolin: 8.2 days
  Fin. Conc. (ppm): 3.32 ppm
  Onset: 4.1 days
[3]; [18]
  50%: 8.2 days
  Fin. Conc. (ppm): 3.32 ppm
  Onset: 4.1 days
[3]; control: rhoifolin 20 ppm without anthocyanin extract, citrate buffer pH 2.8, room temperature
  Onset (d) of crystallization: 4.1 days
[3]; [19]
  50% Rem (d), days when only 50% of initial rhoifolin remained in solution: 8.2 days
  Fin. Conc. (ppm) of rhoifolin in solution: 3.3 ppm
